Laboratory results: patent publication US20230365566A1, “HETEROCYCLIC AMIDES AND THEIR USE FOR MODULATING SPLICING” (REMIX THERAPEUTICS INC., priority 2020, published 2023)

Columns and labels:
Type in all cases: cell-based
[1] = tested on: HTT mRNA alternative junction (AJ); assay: Splicing RT-qPCR assay, increase of HTT alternative junction (AJ) mRNA; conditions: A673 or K562 cells, 24 hours compound treatment, concentration having 50% response in AJ increase
Description: (§1) Compounds described herein were used to modulate RNA transcript abundance in cells. The expression of a target mRNA was measured by detecting the formation of an exon-exon junction in the canonical transcript (CJ). A compound mediated exon-inclusion event was detected by observing an increase in formation of a new junction with an alternative exon (AJ). Real-time qPCR assays were used to detect these splicing switches and interrogate the potency of various compounds towards different target genes. A high-throughput real time quantitative PCR (RT-qPCR) assay was developed to measure these two isoforms of the mRNA (CJ and AJ) for an exemplary gene, HTT, together with a control housekeeping gene, GAPDH or GUSB or PPIA, used for normalization. Briefly, the A673 or K562 cell line was treated with various compounds described herein (e.g., compounds of Formula (I)). After treatment, the levels of the HTT mRNA targets were determined from each sample of cell lysate by cDNA synthesis followed by qPCR.
(§2) The A673 cell line was cultured in DMEM with 10% FBS. Cells were diluted with full growth media and plated in a 96-well plate (15,000 cells in 100 ul media per well). The plate was incubated at 37° C. with 5% CO2 for 24 hours to allow cells to adhere. An 11-point 3-fold serial dilution of the compounds was made in DMSO then diluted in media in an intermediate plate. Compounds were transferred from the intermediate plate to the cell plate with the top dose at a final concentration of 10 uM in the well. Final DMSO concentration was kept at or below 0.25%. The cell plate was returned to the incubator at 37° C. with 5% CO2 for an additional 24 hours.
(§3) The K562 cell line was cultured in IMDM with 10% FBS. For K562, cells were diluted with full growth media and plated in either a 96-well plate (50,000 cells in 50 uL media per well) or a 384-well plate (8,000-40,000 cells in 45 uL media per well). An 11-point 3-fold serial dilution of the compounds were made in DMSO then diluted in media in an intermediate plate. Compound was transferred from the intermediate plate to the cell plate with the top dose at a final concentration of 10 uM in the well. Final DMSO concentration was kept at or below 0.25%. Final volume was 100 uL for 96-well plate and 50 uL for 384-well plate. The cell plate was then placed in an incubator at 37° C. with 5% CO2 for 24 hours.
(§4) The cells were then gently washed with 50 uL-100 uL cold PBS before proceeding to addition of lysis buffer. 30 uL-50 uL of room temperature lysis buffer with DNAse I (and optionally RNAsin) was added to each well. Cells were shaken/mixed thoroughly at room temperature for 5-10 minutes for lysis to take place and then 3 uL-5 uL of room temperature stop solution was added and wells were shaken/mixed again. After 2-5 minutes, the cell lysate plate was transferred to ice for RT-qPCR reaction setup. The lysates could also be frozen at −80° C. for later use.
(§5) In some cases, a direct lysis buffer was used. An appropriate volume of 3× lysis buffer (10 mM Tris, 150 mM NaCl, 1.5%-2.5% Igepal and 0.1-1 U/uL RNAsin, pH 7.4) was directly added to either K562 or A673 cells in media and mixed by pipetting 3 times. The plates were then incubated at room temperature with shaking/rocking for 20-50 minutes to allow for lysis to take place. After this time, the cell lysate plate was transferred to ice to set up for the RT-qPCR reactions. The lysates could also be frozen at −80° C. for later use.
(§6) To set up 10 uL RT-qPCR reactions, cell lysates were transferred to 384-well qPCR plates containing the master mix according to the table below. The plates were sealed, gently vortexed, and spun down before the run. The volumes were adjusted accordingly in some instances where the reaction was carried in 20 uL. The table below summarizes the components of the RT-qPCR reactions:
(§7) The RT-qPCR reaction was performed using a QuantStudio (ThermoFisher) under the following fast cycling conditions. […]

Target C CJ mRNA = assay: Gene panel canonical junction qPCR assay, Target C; conditions: protocol of Example 42, read-out: Target C IC50 (decrease in CJ mRNA levels)
Description: as §1, §2, §3
(§8) The data analysis was performed by first determining the ACt vs the housekeeper gene. This ACt was then normalized against the DMSO control (AACt) and converted to RQ (relative quantification) using the 2^(−ΔΔCt) equation. The RQ were then converted to a percentage response by arbitrarily setting an assay window of 3.5 ΔCt for HTT-CJ and an assay window of 9 ΔCt for HTT-AJ. […] The percentage response was then fitted to the 4 parametric logistic equation to evaluate the concentration dependence of compound treatment. The increase in AJ mRNA is reported as AC50 (compound concentration having 50% response in AJ increase) while the decrease in CJ mRNA levels is reported as IC50 (compound concentration having 50% response in CJ decrease).
(§9) Additional studies were carried out for a larger panel of genes using the protocol provided above. The junction between flanking upstream and downstream exons was used to design canonical junction qPCR assays. At least one of the forward primer, reverse primer or the CY5-labeled 5′ nuclease probe (with 3′ quencher such as ZEN/Iowa Black FQ) was designed to overlap with the exon junction to capture the CJ mRNA transcript. BLAST was used to confirm the specificity of the probeset and parameters such as melting temperature, GC content, amplicon size, and primer dimer formation are considered during their design. Data for the decrease in CJ mRNA levels for three exemplary genes (HTT, SMN2, and Target C) analyzed in this panel are reported as IC50 (compound concentration having 50% response in CJ decrease).

[2] = tested on: HTT mRNA canonical junction (CJ); assay: Splicing RT-qPCR assay, decrease of HTT canonical junction (CJ) mRNA; conditions: A673 or K562 cells, 24 hours compound treatment, concentration having 50% response in CJ decrease
Description: as §1, §2, §3, §4, §5, §6, §7

SMN2 CJ mRNA = assay: Gene panel canonical junction qPCR assay, SMN2; conditions: protocol of Example 42, read-out: SMN2 IC50 (decrease in CJ mRNA levels)
Description: as §1, §2, §3, §8, §9

HTT CJ mRNA = assay: Gene panel canonical junction qPCR assay, HTT; conditions: protocol of Example 42, read-out: HTT IC50 (decrease in CJ mRNA levels)
Description: as §1, §2, §3, §8, §9

Row | IC50 (Target C CJ mRNA) | IC50 (SMN2 CJ mRNA) | IC50 (HTT CJ mRNA) | SMILES | AC50 [1] | AC50 [2]
1 | 1000 to 10000 nM | < 100 nM | 1000 to 10000 nM | Cc1cn2cc(NC(=O)c3ccc(N4CCN(C)CC4)c4cc(C)oc34)cc(F)c2n1 [Compound 189, N-[8-fluoro-2-methylimidazo [1,2-a]pyridin-6-yl]-2-methyl-4-(4-methylpiperazin-1-yl)-1-benzofuran-7-carboxamide] | 1000 to 10000 nM | 1000 to 10000 nM
2 | 1000 to 10000 nM | 100 to 1000 nM | 1000 to 10000 nM | Cc1cn2cc(NC(=O)c3ccc(N4CCNC(C)C4)c4cc(C)oc34)cc(F)c2n1 (stereo not drawn) [Compound 190, N-{8-fluoro-2-methylimidazo[1,2-a]pyridin-6-yl}-2-methyl-4-(3-methylpiperazin-1-yl)-1-benzofuran-7-carboxamide] | 1000 to 10000 nM | 1000 to 10000 nM
3 | 1000 to 10000 nM | < 100 nM | 100 to 1000 nM | Cc1cn2cc(NC(=O)c3ccc(N4CCN(C)C(C)C4)c4cc(C)oc34)cc(F)c2n1 (stereo not drawn) [Compound 191] | 1000 to 10000 nM | 100 to 1000 nM
4 | > 10000 nM | < 100 nM | 1000 to 10000 nM | Cc1cn2cc(NC(=O)c3ccc(N4CCNC(C)(C)C4)c4cc(C)oc34)cc(F)c2n1 [Compound 193] | 1000 to 10000 nM | 1000 to 10000 nM
5 | > 10000 nM | < 100 nM | 1000 to 10000 nM | Cc1cn2cc(NC(=O)c3ccc(N4CCNC5(CC5)C4)c4cc(C)oc34)cc(F)c2n1 [Compound 194] | 1000 to 10000 nM | 1000 to 10000 nM
6 | 1000 to 10000 nM | < 100 nM | 1000 to 10000 nM | CCNC1CCN(c2ccc(C(=O)Nc3cc(F)c4nc(C)cn4c3)c3oc(C)cc23)CC1 [Compound 196, 4-[4-(ethylamino)piperidin-1-yl]-N-[8-fluoro-2-methylimidazo[1,2-a]pyridin-6-yl]-2-methyl-1-benzofuran-7-carboxamide] | 1000 to 10000 nM | 1000 to 10000 nM
7 | > 10000 nM | 100 to 1000 nM | > 10000 nM | Cc1cn2cc(NC(=O)c3ccc(N4CCC(NC(C)(C)C)CC4)c4cc(C)oc34)cc(F)c2n1 [Compound 197, 4-[4-(tert-butylamino)piperidin-1-yl]-N-[8-fluoro-2-methylimidazo[1,2-a]pyridin-6-yl]-2-methyl-1-benzofuran-7-carboxamide] | > 10000 nM | > 10000 nM
8 | 1000 to 10000 nM | < 100 nM | 100 to 1000 nM | Cc1cn2cc(NC(=O)c3ccc(N4CCC(N(C)C)CC4)c4cc(C)oc34)cc(F)c2n1 [Compound 198, 4-[4-(dimethylamino)piperidin-1-yl]-N-[8-fluoro-2-methylimidazo[1,2-a]pyridin-6-yl]-2-methyl-1-benzofuran-7-carboxamide] | 1000 to 10000 nM | 100 to 1000 nM
9 | 1000 to 10000 nM | < 100 nM | 100 to 1000 nM | Cc1cn2cc(NC(=O)c3ccc(N4CCN5CCCC5C4)c4cc(C)oc34)cc(F)c2n1 (stereo not drawn) [Compound 199, N-[8-fluoro-2-methylimidazo[1,2-a]pyridin-6-yl]-4-[hexahydro-1H-pyrrolo[1,2-a]pyrazin-2-yl]-2-methyl-1-benzofuran-7-carboxamide] | 100 to 1000 nM | 100 to 1000 nM
10 | > 10000 nM | < 100 nM | > 10000 nM | Cc1cn2cc(NC(=O)c3ccc(N4CCC(N(C)C)C4)c4cc(C)oc34)cc(F)c2n1 (stereo not drawn) [Compound 202] | 1000 to 10000 nM | > 10000 nM
11 | 1000 to 10000 nM | 100 to 1000 nM | 1000 to 10000 nM | Cc1cn2cc(NC(=O)c3ccc(N4CCC(NC(C)(C)C)C4)c4cc(C)oc34)cc(F)c2n1 (stereo not drawn) [Compound 203, 4-[3-(tert-butylamino)pyrrolidin-1-yl]-N-[8-fluoro-2-methylimidazo[1,2-a]pyridin-6-yl]-2-methyl-1-benzofuran-7-carboxamide] | 1000 to 10000 nM | 1000 to 10000 nM
12 | 1000 to 10000 nM | < 100 nM | 1000 to 10000 nM | Cc1cn2cc(NC(=O)c3ccc(N4CCC(N5CCCC5)C4)c4cc(C)oc34)cc(F)c2n1 (stereo not drawn) [Compound 204, 4-[[1,3′-bipyrrolidin]-1′-yl]-N-[8-fluoro-2-methylimidazo[1,2-a]pyridin-6-yl]-2-methyl-1-benzofuran-7-carboxamide] | 1000 to 10000 nM | 1000 to 10000 nM
13 | 1000 to 10000 nM | < 100 nM | 100 to 1000 nM | Cc1cn2cc(NC(=O)c3ccc(N4CC5(CNC5)C4)c4cc(C)oc34)cc(F)c2n1 [Compound 205] | 1000 to 10000 nM | 100 to 1000 nM
14 | > 10000 nM | < 100 nM | 1000 to 10000 nM | Cc1cn2cc(NC(=O)c3ccc(N4CC5(CN(C)C5)C4)c4cc(C)oc34)cc(F)c2n1 [Compound 206] | 1000 to 10000 nM | 1000 to 10000 nM
15 | 1000 to 10000 nM | < 100 nM | 100 to 1000 nM | Cc1cn2cc(NC(=O)c3ccc(N4CCN(C)CC4)c4cn(C)nc34)cc(F)c2n1 [Compound 207] | 100 to 1000 nM | 100 to 1000 nM
16 | 1000 to 10000 nM | < 100 nM | 100 to 1000 nM | Cc1cn2cc(NC(=O)c3ccc(C4CCNCC4)c4cn(C)nc34)cc(F)c2n1 [Compound 208, N-[8-fluoro-2-methylimidazo[1,2-a]pyridin-6-yl]-2-methyl-4-(piperidin-4-yl)indazole-7-carboxamide] | 100 to 1000 nM | 100 to 1000 nM

Row | SMILES | IC50 (Target C CJ mRNA) | IC50 (SMN2 CJ mRNA) | IC50 (HTT CJ mRNA) | AC50 [1] | AC50 [2]
17 | Cc1cn2cc(NC(=O)c3ccc(N(C)C4CCN(C)CC4)c4cc(C)oc34)cc(F)c2n1 [Compound 200] | 1000 to 10000 nM | < 100 nM | 1000 to 10000 nM | 1000 to 10000 nM | 1000 to 10000 nM
18 | Cc1cn2cc(NC(=O)c3ccc(N(C)C4CC(C)(C)NC(C)(C)C4)c4cc(C)oc34)cc(F)c2n1 [Compound 201] | > 10000 nM | 1000 to 10000 nM | > 10000 nM | > 10000 nM | > 10000 nM
